Drawing on patent publication US9650379B2 (CHONG KUN DANG PHARMACEUTICAL CORP., priority 2013, dated 2017), this text covers IC50 for 23 molecules.

The target in one experiment is T1, HDAC6 human recombinant (Homo sapiens, UniProt Q9UBN7).
T1 construct: purchased Calbiochem 382180
T1 sequence (Q9UBN7 1-1215): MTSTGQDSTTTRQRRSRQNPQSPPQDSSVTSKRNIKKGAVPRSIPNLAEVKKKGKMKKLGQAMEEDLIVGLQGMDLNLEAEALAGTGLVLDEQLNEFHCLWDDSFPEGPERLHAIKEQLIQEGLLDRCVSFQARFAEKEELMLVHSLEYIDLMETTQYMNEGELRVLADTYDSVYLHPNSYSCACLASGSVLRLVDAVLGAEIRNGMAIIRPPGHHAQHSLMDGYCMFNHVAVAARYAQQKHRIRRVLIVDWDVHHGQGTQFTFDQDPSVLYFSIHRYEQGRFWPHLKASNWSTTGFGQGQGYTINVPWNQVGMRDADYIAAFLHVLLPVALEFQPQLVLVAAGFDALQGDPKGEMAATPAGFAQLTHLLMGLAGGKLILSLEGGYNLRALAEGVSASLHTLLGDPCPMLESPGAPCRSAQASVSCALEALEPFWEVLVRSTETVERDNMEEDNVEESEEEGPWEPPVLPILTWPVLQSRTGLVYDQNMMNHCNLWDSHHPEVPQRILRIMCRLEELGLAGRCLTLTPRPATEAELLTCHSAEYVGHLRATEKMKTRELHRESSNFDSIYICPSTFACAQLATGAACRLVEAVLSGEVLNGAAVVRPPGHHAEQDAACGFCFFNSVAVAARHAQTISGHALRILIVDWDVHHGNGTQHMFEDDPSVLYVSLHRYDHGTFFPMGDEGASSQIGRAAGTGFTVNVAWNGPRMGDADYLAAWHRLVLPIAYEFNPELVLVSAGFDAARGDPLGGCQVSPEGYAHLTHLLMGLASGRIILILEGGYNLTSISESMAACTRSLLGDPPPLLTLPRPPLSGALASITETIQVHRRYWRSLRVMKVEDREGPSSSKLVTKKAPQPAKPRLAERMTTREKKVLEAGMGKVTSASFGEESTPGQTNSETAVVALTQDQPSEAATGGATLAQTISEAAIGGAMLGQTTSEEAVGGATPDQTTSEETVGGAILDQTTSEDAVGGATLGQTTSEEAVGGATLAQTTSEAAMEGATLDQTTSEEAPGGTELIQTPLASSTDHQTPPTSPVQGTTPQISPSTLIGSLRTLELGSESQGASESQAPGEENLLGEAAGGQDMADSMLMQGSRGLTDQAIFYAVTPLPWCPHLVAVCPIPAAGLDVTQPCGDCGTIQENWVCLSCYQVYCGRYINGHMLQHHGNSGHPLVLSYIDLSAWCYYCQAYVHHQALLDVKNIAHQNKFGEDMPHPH
The experiment is described as follows: Inhibition of HDAC6 activity (fluorimetric assay). The format is biochemical. The settings on record: test concentrations 0.1, 1, 10, 100 and 1000 nM; 37° C., 60 minutes. Summed up:
(§1)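 HDAC1 tested with the kit assay mixture at 100, 1000 and 10000 nM compound; recombinant human HDAC6 at 0.1, 1, 10, 100 and 1000 nM. Reaction ran 60 min at 37° C, then developer was added for 30 min at 37° C and fluorescence quantified.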

For the next experiment, the target named is T2, HDAC1 (Homo sapiens, UniProt Q13547).
T2 construct: purchased Enzolifesciences BML-AK511
The experiment is described as follows: Inhibition of HDAC1 activity (HDAC1 fluorimetric drug discovery assay kit). The format is biochemical. The settings on record: test concentrations 100, 1000 and 10000 nM; 37° C., 60 minutes. Summed up:
as §1

T2 sequence (Q13547 whole entry): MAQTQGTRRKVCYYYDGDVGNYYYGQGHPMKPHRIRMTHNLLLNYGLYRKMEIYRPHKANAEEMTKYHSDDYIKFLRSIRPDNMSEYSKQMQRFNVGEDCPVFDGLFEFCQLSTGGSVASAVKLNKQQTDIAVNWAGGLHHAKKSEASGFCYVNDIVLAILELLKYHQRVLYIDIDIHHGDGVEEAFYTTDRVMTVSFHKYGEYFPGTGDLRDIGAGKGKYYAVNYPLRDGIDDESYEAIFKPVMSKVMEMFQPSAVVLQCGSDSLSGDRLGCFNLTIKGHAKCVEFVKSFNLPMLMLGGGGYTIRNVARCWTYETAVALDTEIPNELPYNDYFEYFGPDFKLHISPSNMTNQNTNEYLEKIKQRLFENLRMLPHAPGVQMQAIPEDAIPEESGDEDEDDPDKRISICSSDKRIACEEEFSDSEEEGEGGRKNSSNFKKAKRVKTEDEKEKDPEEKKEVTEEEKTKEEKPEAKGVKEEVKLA

`O=C(NO)c1ccc(Cn2ccc3cc(N4CCOCC4)cnc32)cc1` [Compound 787, N-hydroxy-4-((5-morpholino-1H-pyrrolo[2,3-b]pyridin-1-yl)methyl)benzamide]: the IC50 on HDAC6 human recombinant was determined as 24.9 nM; against HDAC1, 2780 nM.

`CN1CCN(Cc2cccc(-c3ccnc4c3ccn4Cc3ccc(C(=O)NO)cc3)c2)CC1` [Compound 799, N-hydroxy-4-((4-(3-((4-methylpiperazin-1-yl)methyl)phenyl)-1H-pyrrolo[2,3-b]pyridin-1-yl)methyl)benzamide]: the IC50 worked out at 3.8 nM at HDAC6 human recombinant and 570 nM against HDAC1.

Regarding `O=C(NO)c1ccc(Cn2ccc3cc(C4CCN(Cc5ccccc5)CC4)cnc32)cc1` [Compound 804, 4-((5-(1-benzylpiperidin-4-yl)-1H-pyrrolo[2,3-b]pyridin-1-yl)methyl)-N-hydroxybenzamide], the values for the IC50 on HDAC6 human recombinant and on HDAC1 were 58 nM and 1980 nM, respectively.

On to `CC1CCN(c2cnc3c(ccn3Cc3ccc(C(=O)NO)cc3)c2)CC1` [Compound 805, N-hydroxy-4-((5-(4-methylpiperidin-1-yl)-1H-pyrrolo[2,3-b]pyridin-1-yl)methyl)benzamide], for which the IC50 at HDAC6 human recombinant worked out at 38 nM; at HDAC1 it was 1610 nM.

With `O=C(NO)c1ccc(Cn2ccc3cc(N4CCN(Cc5ccccc5)CC4)cnc32)cc1` [Compound 806, 4-((5-(4-benzylpiperazin-1-yl)-1H-pyrrolo[2,3-b]pyridin-1-yl)methyl)-N-hydroxybenzamide], the IC50 at HDAC6 human recombinant is 6.7 nM; on HDAC1, 680 nM.

Regarding `CC1CN(c2cnc3c(ccn3Cc3ccc(C(=O)NO)cc3)c2)CC(C)O1` (stereo not shown) [Compound 807, 4-((5-(2,6-dimethylmorpholino)-1H-pyrrolo[2,3-b]pyridin-1-yl)methyl)-N-hydroxybenzamide], the IC50 is 10.4 nM on HDAC6 human recombinant and 390 nM at HDAC1.

Turning to `CC(C)(C)OC(=O)NC1CCN(c2cnc3c(ccn3Cc3ccc(C(=O)NO)cc3)c2)CC1` [Compound 809, tert-butyl (1-(1-(4-(hydroxycarbamoyl)benzyl)-1H-pyrrolo[2,3-b]pyridin-5-yl)piperidin-4-yl)carbamate], the half-inhibitory concentration (IC50) at HDAC6 human recombinant came to 30 nM; against HDAC1 it was 3720 nM.

For the molecule `CC(C)(O)CN1CCC(c2ccnc3c2ccn3Cc2ccc(C(=O)NO)cc2)CC1` [Compound 812, N-hydroxy-4-((4-(1-(2-hydroxy-2-methylpropyl)piperidin-4-yl)-1H-pyrrolo[2,3-b]pyridin-1-yl)methyl)benzamide], the IC50 is 5 nM at HDAC6 human recombinant and 150 nM at HDAC1.

For the molecule `COc1ccc(CN2CCC(c3cnc4c(ccn4Cc4ccc(C(=O)NO)cc4)c3)CC2)cc1` [Compound 830, N-hydroxy-4-((5-(1-(4-methoxybenzyl)piperidin-4-yl)-1H-pyrrolo[2,3-b]pyridin-1-yl)methyl)benzamide], the IC50 on HDAC6 human recombinant is 13 nM; against HDAC1, 1920 nM.

Take `O=C(NO)c1ccc(Cn2ccc3cc(C4CCN(C(=O)c5cccc(F)c5)CC4)cnc32)cc1` [Compound 831, 4-((5-(1-(3-fluorobenzoyl)piperidin-4-yl)-1H-pyrrolo[2,3-b]pyridin-1-yl)methyl)-N-hydroxybenzamide]: the half-maximal inhibitory concentration (IC50) was determined as 7 nM on HDAC6 human recombinant and 1220 nM at HDAC1.

For `O=C(NO)c1ccc(Cn2ccc3cc(C4CCN(Cc5ccccc5F)CC4)cnc32)cc1` [Compound 839, 4-((5-(1-(2-fluorobenzyl)piperidin-4-yl)-1H-pyrrolo[2,3-b]pyridin-1-yl)methyl)-N-hydroxybenzamide], the IC50 at HDAC6 human recombinant amounted to 17.5 nM; against HDAC1, 1910 nM.

`O=C(NO)c1ccc(Cn2ccc3cc(C4CCN(Cc5cccnc5)CC4)cnc32)cc1` [Compound 840, N-hydroxy-4-((5-(1-(pyridin-3-ylmethyl)piperidin-4-yl)-1H-pyrrolo[2,3-b]pyridin-1-yl)methyl)benzamide]: the IC50 at HDAC6 human recombinant is 4.1 nM; against HDAC1 it was 610 nM.

As to `O=C(NO)c1ccc(Cn2ccc3cc(C4CCN(Cc5ccncc5)CC4)cnc32)cc1` [Compound 841, N-hydroxy-4-((5-(1-(pyridin-4-ylmethyl)piperidin-4-yl)-1H-pyrrolo[2,3-b]pyridin-1-yl)methyl)benzamide], the IC50 at HDAC6 human recombinant came to 6.9 nM; on HDAC1, 540 nM.

In the case of `COc1cccc(CN2CCC(c3cnc4c(ccn4Cc4ccc(C(=O)NO)cc4)c3)CC2)c1` [Compound 842, N-hydroxy-4-((5-(1-(3-methoxybenzyl)piperidin-4-yl)-1H-pyrrolo[2,3-b]pyridin-1-yl)methyl)benzamide], the values for the IC50 on HDAC6 human recombinant and against HDAC1 were 14 nM and 1790 nM, respectively.

`O=C(NO)c1ccc(Cn2ccc3cc(C4CCN(Cc5ccc(F)cc5)CC4)cnc32)cc1` [Compound 843, 4-((5-(1-(4-fluorobenzyl)piperidin-4-yl)-1H-pyrrolo[2,3-b]pyridin-1-yl)methyl)-N-hydroxybenzamide]: the values for the IC50 at HDAC6 human recombinant and against HDAC1 were 14 nM and 770 nM, respectively.

Turning to `O=C(NO)c1ccc(Cn2ccc3cc(C4CCN(Cc5ccccn5)CC4)cnc32)cc1` [Compound 844], the IC50 came to 3.4 nM at HDAC6 human recombinant and 550 nM against HDAC1.

On to `O=C(NO)c1ccc(Cn2ccc3cc(C4CCN(Cc5noc(C(F)(F)F)n5)CC4)cnc32)cc1` [Compound 845, N-hydroxy-4-((5-(1-((5-(trifluoromethyl)-1,2,4-oxadiazol-3-yl)methyl)piperidin-4-yl)-1H-pyrrolo[2,3-b]pyridin-1-yl)methyl)benzamide], for which the values for the IC50 at HDAC6 human recombinant and on HDAC1 were 1.2 nM and 300 nM, respectively.

Regarding `COc1cccc(CN2CCN(c3ccnc4c3ccn4Cc3ccc(C(=O)NO)cc3)CC2)c1` [Compound 846, N-hydroxy-4-((4-(4-(3-methoxybenzyl)piperazin-1-yl)-1H-pyrrolo[2,3-b]pyridin-1-yl)methyl)benzamide], the IC50 on HDAC6 human recombinant is 5.7 nM; at HDAC1 it was 1410 nM.

As to `O=C(NO)c1ccc(Cn2ccc3c(N4CCN(Cc5ccccc5F)CC4)ccnc32)cc1` [Compound 847, 4-((4-(4-(2-fluorobenzyl)piperazin-1-yl)-1H-pyrrolo[2,3-b]pyridin-1-yl)methyl)-N-hydroxybenzamide], the IC50 at HDAC6 human recombinant was determined as 5.6 nM; against HDAC1, 600 nM.

For `O=C(NO)c1ccc(Cn2ccc3c(N4CCN(Cc5cccc(F)c5)CC4)ccnc32)cc1` [Compound 848, 4-((4-(4-(3-fluorobenzyl)piperazin-1-yl)-1H-pyrrolo[2,3-b]pyridin-1-yl)methyl)-N-hydroxybenzamide], the results for the IC50 at HDAC6 human recombinant and against HDAC1 were 9.1 nM and 850 nM, respectively.

Consider `O=C(NO)c1ccc(Cn2ccc3c(N4CCN(Cc5cccnc5)CC4)ccnc32)cc1` [Compound 849, N-hydroxy-4-((4-(4-(pyridin-3-ylmethyl)piperazin-1-yl)-1H-pyrrolo[2,3-b]pyridin-1-yl)methyl)benzamide], for which the IC50 on HDAC6 human recombinant came out at 11.7 nM; against HDAC1, 290 nM.

On to `O=C(NO)c1ccc(Cn2ccc3c(N4CCN(Cc5ccncc5)CC4)ccnc32)cc1` [Compound 850, N-hydroxy-4-((4-(4-(pyridin-4-ylmethyl)piperazin-1-yl)-1H-pyrrolo[2,3-b]pyridin-1-yl)methyl)benzamide], for which the IC50 on HDAC6 human recombinant stood at 4.4 nM; on HDAC1, 220 nM.

Turning to `O=C(NO)c1ccc(Cn2ccc3cc(N4CCN(Cc5cccc(F)c5)CC4)cnc32)cc1` [Compound 851, 4-((5-(4-(3-fluorobenzyl)piperazin-1-yl)-1H-pyrrolo[2,3-b]pyridin-1-yl)methyl)-N-hydroxybenzamide], the results for the concentration for half-maximal inhibition (IC50) on HDAC6 human recombinant and against HDAC1 were 12.7 nM and 1930 nM, respectively.

As usually defined, the IC50 is the concentration that gives 50% inhibition.
